Assay results reported in ChEMBL document CHEMBL1201862, “PubChem BioAssay data set” (2004).
Structures can show the parent of a compound that is named as a salt.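 Each compound was tested at five concentrations against cells in 96-well plates for 48 hours. GI50 = concentration required for 50% inhibition of growth.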 Activity calls are given as the source filed them. No stated cut-off is given here; in the data, active = GI50 up to about 1.1 µM and inactive = higher.

Assays:
Experiment in all cases: NCI tumour cell line growth inhibition, 48 h
[1] = test system: EKVX
[2] = test system: NCI-H226
[3] = test system: LOX IMVI
[4] = test system: SK-OV-3
[5] = test system: SNB-75
[6] = test system: Malme-3M
[7] = test system: SK-MEL-28
[8] = test system: RXF 393
[9] = test system: HCT-15
[10] = test system: ACHN
[11] = test system: SF-268
[12] = test system: SK-MEL-5
[13] = test system: HOP-62
[14] = test system: 786-0
[15] = test system: TK-10
[16] = test system: UACC-62
[17] = test system: SK-MEL-2
[18] = test system: SF-295
[19] = test system: M14
[20] = test system: KM12

For CC1(C)CC(=O)c2c(nc3c4c([nH]c(-c5ccc([N+](=O)[O-])cc5)c24)CC(C)(C)C3)C1, the GI50 [1] was 61.4 µM (inactive), the GI50 [2] was 43.8 µM (inactive) and the GI50 [3] was 31.3 µM (inactive). The GI50 [4] was > 100 µM (inactive), the GI50 [5] was 24.8 µM (inactive) and the GI50 [6] was > 100 µM (inactive). For the same compound, the GI50 [7] was 60.8 µM (inactive), the GI50 [8] was 25.8 µM (inactive) and the GI50 [9] was 25.2 µM. For the same compound, the GI50 [10] was 28 µM (inactive), the GI50 [11] was 50.9 µM (inactive) and the GI50 [12] was 26.2 µM (inactive). For the same compound, the GI50 [13] was > 100 µM (inactive), the GI50 [14] was 21.3 µM (inactive) and the GI50 [15] was 50.7 µM (inactive). The GI50 [16] was 21.7 µM (inactive), the GI50 [17] was 35.2 µM (inactive) and the GI50 [18] was 30 µM (inactive). The GI50 [19] was 27.7 µM (inactive) and the GI50 [20] was 37.4 µM (inactive).

O=C(Cc1ccccc1)Nc1nc2ccc(Cl)cc2c2nc(-c3ccco3)nn12 was tested, and the GI50 [1] was > 70.8 µM (inactive), the GI50 [2] was > 35.6 µM (inactive) and the GI50 [3] was > 100 µM (inactive). The GI50 [4] was 39.6 µM (inactive), the GI50 [5] was 5.02 µM (inactive) and the GI50 [6] was 53.7 µM (inactive). For the same compound, the GI50 [7] was > 100 µM (inactive), the GI50 [8] was 17.7 µM (inactive) and the GI50 [9] was greater than 100 µM. For the same compound, the GI50 [10] was 5.02 µM (inactive), the GI50 [11] was > 62.8 µM (inactive) and the GI50 [12] was 89.5 µM (inactive). The GI50 [13] was 16.4 µM (inactive), the GI50 [14] was 10.1 µM (inactive) and the GI50 [15] was > 35.1 µM (inactive). The GI50 [16] was > 100 µM (inactive), the GI50 [17] was > 67.9 µM (inactive) and the GI50 [18] was 21.7 µM (inactive). For the same compound, the GI50 [19] was > 100 µM (inactive) and the GI50 [20] was > 100 µM (inactive).

CCCCOC(=O)CC(CC(=O)OCCCC)(OC(C)=O)C(=O)OCCCC [ACETYLTRIBUTYL CITRATE] was tested, and the GI50 [1] was > 101 µM (inactive), the GI50 [2] was 24.6 µM (inactive) and the GI50 [3] was 150 µM (inactive). For the same compound, the GI50 [4] was > 200 µM (inactive), the GI50 [5] was 8.49 µM (inactive) and the GI50 [6] was 197 µM (inactive). The GI50 [7] was > 157 µM (inactive), the GI50 [8] was 1.1 µM (active) and the GI50 [9] was greater than 177 µM. The GI50 [10] was > 200 µM (inactive), the GI50 [11] was > 200 µM (inactive) and the GI50 [12] was 16.1 µM (inactive). The GI50 [13] was > 200 µM (inactive), the GI50 [14] was > 200 µM (inactive) and the GI50 [15] was > 200 µM (inactive). For the same compound, the GI50 [16] was 117 µM (inactive), the GI50 [17] was > 200 µM (inactive) and the GI50 [18] was 91.2 µM (inactive). For the same compound, the GI50 [19] was > 200 µM (inactive) and the GI50 [20] was > 112 µM (inactive).

Cc1cc(C)c(/C=C2\C(=O)Nc3ccccc32)[nH]1 [SEMAXANIB] was tested, and the GI50 [1] was 2.81 µM (inactive), the GI50 [2] was 1.22 µM (inactive) and the GI50 [3] was > 100 µM (inactive). For the same compound, the GI50 [4] was > 66.7 µM (inactive), the GI50 [5] was 0.906 µM (active) and the GI50 [6] was > 58.5 µM (inactive). For the same compound, the GI50 [7] was > 100 µM (inactive), the GI50 [8] was > 100 µM (inactive) and the GI50 [9] was 34.8 µM. For the same compound, the GI50 [10] was 66.2 µM (inactive), the GI50 [11] was > 100 µM (inactive) and the GI50 [12] was > 90.8 µM (inactive). The GI50 [13] was > 82.2 µM (inactive), the GI50 [14] was > 100 µM (inactive) and the GI50 [15] was > 100 µM (inactive). For the same compound, the GI50 [16] was > 100 µM (inactive), the GI50 [17] was > 75.9 µM (inactive) and the GI50 [18] was > 100 µM (inactive). For the same compound, the GI50 [19] was 69 µM (inactive) and the GI50 [20] was 0.998 µM (active).
